Assay results from patent US4380644A, “2-Oxoimidazolidine derivatives” (Tanabe Siyaku Co., Ltd., priority 1980, dated 1983).

Key:
[1] = target: T1, angiotensin-converting enzyme (ACE) (Rattus norvegicus, UniProt P47820); assay: ACE-inhibitory activity in vivo (pressor response to angiotensin I); settings: 1.0 mg/kg orally, anesthetized normotensive rats; for Duration of action: ACE inhibition; for inhibition at 1 mg/kg: rat, read-out: ACE-inhibitory activity (%), percentage inhibition of ACE-activity in vivo
T1 construct: Normotensive rats were anesthetized with urethane; from tissue; host or cells: endogenous enzyme of the whole living animal (normotensive rats, in vivo)
T1 sequence (P47820 36-1313): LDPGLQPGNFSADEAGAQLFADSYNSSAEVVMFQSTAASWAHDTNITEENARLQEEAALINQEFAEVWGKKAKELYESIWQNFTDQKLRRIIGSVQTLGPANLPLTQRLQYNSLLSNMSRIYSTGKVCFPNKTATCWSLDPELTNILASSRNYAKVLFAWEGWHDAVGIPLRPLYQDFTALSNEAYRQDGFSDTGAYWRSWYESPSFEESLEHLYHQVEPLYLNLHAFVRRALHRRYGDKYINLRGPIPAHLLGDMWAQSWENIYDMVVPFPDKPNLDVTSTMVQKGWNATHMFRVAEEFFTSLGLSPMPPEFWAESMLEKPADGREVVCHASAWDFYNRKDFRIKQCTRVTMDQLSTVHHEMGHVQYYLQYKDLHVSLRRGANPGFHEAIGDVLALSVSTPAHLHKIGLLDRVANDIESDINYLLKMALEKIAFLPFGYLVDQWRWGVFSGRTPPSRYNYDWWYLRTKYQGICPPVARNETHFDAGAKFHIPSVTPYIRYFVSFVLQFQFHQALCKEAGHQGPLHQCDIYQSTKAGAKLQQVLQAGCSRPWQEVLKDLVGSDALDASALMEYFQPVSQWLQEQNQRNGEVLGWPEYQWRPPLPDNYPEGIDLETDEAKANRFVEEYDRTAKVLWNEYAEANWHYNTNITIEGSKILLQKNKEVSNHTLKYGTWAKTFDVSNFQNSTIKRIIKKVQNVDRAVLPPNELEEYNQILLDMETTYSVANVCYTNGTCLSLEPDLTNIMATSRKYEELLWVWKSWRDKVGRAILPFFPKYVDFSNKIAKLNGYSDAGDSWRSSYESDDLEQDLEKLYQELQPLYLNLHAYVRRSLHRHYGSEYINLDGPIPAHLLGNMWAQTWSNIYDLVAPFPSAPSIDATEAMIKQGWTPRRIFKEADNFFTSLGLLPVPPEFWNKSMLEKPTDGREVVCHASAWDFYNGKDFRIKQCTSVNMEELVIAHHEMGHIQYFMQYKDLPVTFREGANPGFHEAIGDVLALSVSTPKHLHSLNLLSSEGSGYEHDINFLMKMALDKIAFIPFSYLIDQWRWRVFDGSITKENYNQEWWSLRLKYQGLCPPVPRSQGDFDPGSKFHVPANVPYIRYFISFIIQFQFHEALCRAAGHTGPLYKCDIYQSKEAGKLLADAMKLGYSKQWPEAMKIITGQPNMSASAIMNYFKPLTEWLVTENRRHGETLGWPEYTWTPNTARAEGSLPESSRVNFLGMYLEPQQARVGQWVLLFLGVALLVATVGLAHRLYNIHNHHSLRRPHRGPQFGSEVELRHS
Experimental: ACE-inhibitory activity in vivo:
Normotensive rats were anesthetized with urethane (1.5 g/kg, s.c.), and agiotensin I (75~300 ng/kg) was injected into the femoral vein of the rates. The pressor response to angiotensin I was measured with a pressure transducer connected to the carotid artery. Then, a test compound was administered orally thereto at a dose of 1.0 mg/kg, and angiotensin I (300 ng/kg) was further injected intravenously at intervals. The ACE-inhibitory activity of the test compound was estimated from the pressor responses to angiotensin I which were obtained before and after oral administration of the test compound.

[2] = tested on: spontaneously hypertensive rats (SHR); assay: Hypotensive activity in SHR; type: in vivo; settings: 50 mg/kg orally; for Decrease in blood pressure (-ΔmmHg): SHR fasted overnight, systolic blood pressure, tail plethysmography
Experimental: Hypotensive activity in SHR:
A test compound suspended in an aqueous carboxymethylcellulose solution was administered orally to spontaneously hypertensive rats (SHR) fasted overnight. The systolic blood pressure of the rats was measured by the tail plethysmographic technique (The Journal of Laboratory and Clicical Medicine 78 (1971), page 957). The hypotensive activity of the test compound was estimated from the decreased level of blood pressure.

[3] = tested on: mice; assay: Toxicity after oral administration to mice; type: in vivo; settings: 3 g/kg orally
Experimental: For example, when (4S)-1-benzyl- 3-[(2S)-3-benzoylthio-2-methylpropionyl]-2-oxo-imidazolidine-4-carboxylic acid was administered orally to mice at a dose of 3 g/kg, no mouse died within 7 days after said administration.

Duration of action [1] [min] | inhibition at 1 mg/kg ([1]; angiotensin I 300 ng/kg i.v.) [%] | ACE-inhibitory activity (%), percentage inhibition of ACE-activity in vivo ([1]; angiotensin I 300 ng/kg i.v.) | Structure (SMILES) | Decrease in blood pressure (-ΔmmHg) [2] [mmHg] | Decrease in blood pressure (-ΔmmHg) ([2]; listed as (4S)-1-benzyl-3-[(2S)-3-benzoylthio-2-methylpropionyl]-2-oxo-imidazolidine-4-car) | Duration of action ([2]; hypotensive activity, SHR, 50 mg/kg) [h] | Duration of action (hours) ([2]; hypotensive activity, SHR, listed as (4S)-1-benzyl-3-[(2S)-3-benzoylthio-2-methylpropionyl]-2-oxo-imidazolidine-4-car, 50 mg/kg) | Mortality within 7 days after administration [3] | Duration of action ([2]; hypotensive activity, SHR) [h]
> 120 | 84 | – | CCN1C[C@@H](C(=O)O)N(C(=O)[C@H](C)CSC(=O)c2ccccc2)C1=O [C2 H5 C6 H5, (4S)-1-ethyl-3-[(2S)-3-benzoylthio-2-methylpropionyl]-2-oxo-imidazolidine-4-carboxylic acid] | – | – | – | – | – | –
> 120 | 88 | about 90% | C[C@H](CSC(=O)c1ccccc1)C(=O)N1C(=O)N(C)C[C@H]1C(=O)O [CH3 C6 H5, (4S)-1-methyl-3-[(2S)-3-benzoylthio-2-methylpropionyl]-2-oxo-imidazolidine-4-carboxylic acid] | – | – | – | – | – | –
> 120 | 67 | – | CC(=O)SC[C@@H](C)C(=O)N1C(=O)N(C)C[C@H]1C(=O)O [CH3 CH3, (4S)-1-methyl-3-[(2S)-3-acetylthio-2-methylpropionyl]-2-oxo-imidazolidine-4-carboxylic acid] | 37 | – | – | – | – | > 6

Structure (SMILES) | Duration of action [1] [min] | inhibition at 1 mg/kg ([1]; angiotensin I 300 ng/kg i.v.) [%] | ACE-inhibitory activity (%), percentage inhibition of ACE-activity in vivo ([1]; angiotensin I 300 ng/kg i.v.) | Decrease in blood pressure (-ΔmmHg) [2] [mmHg] | Decrease in blood pressure (-ΔmmHg) ([2]; listed as (4S)-1-benzyl-3-[(2S)-3-benzoylthio-2-methylpropionyl]-2-oxo-imidazolidine-4-car) | Duration of action ([2]; hypotensive activity, SHR, 50 mg/kg) [h] | Duration of action (hours) ([2]; hypotensive activity, SHR, listed as (4S)-1-benzyl-3-[(2S)-3-benzoylthio-2-methylpropionyl]-2-oxo-imidazolidine-4-car, 50 mg/kg) | Mortality within 7 days after administration [3] | Duration of action ([2]; hypotensive activity, SHR) [h]
C[C@H](CSC(=O)c1ccccc1)C(=O)N1C(=O)N(Cc2ccccc2)C[C@H]1C(=O)O [C6 H5 CH2 C6 H5, (4S)-1-benzyl-3-[(2S)-3-benzoylthio-2-methylpropionyl]-2-oxo-imidazolidine-4-carboxylic acid] | > 120 | 76 | – | 44 | about 44 mmHg | > 6 | more than 6 hours | no mouse died | –
